Measured values taken from patent US9447075B2, “Pyridazine derivatives as EAAT2 activators” (The Brigham and Women's Hospital, Inc., priority 2011, dated 2016).
Values joined by “and” are separate entries in the source; they are usually repeats but may differ in a detail not shown here. Equal values may be shown once.

Test system: EAAT2
Test: EAAT2 protein levels in PA-EAAT2 cells by Western blot
Type: cell-based, human
Settings: for Improvement of potency/activity compared to 1: compared to compound 1, Table 4; for Fold increase for EAAT2, 4 h / Fold increase for EAAT2, 24 h: compound 10 μM, PA-EAAT2 cells, relative to DMSO controls, na = not active; for Fold increase for EAAT2, 4 h: 4 h incubation; for Fold increase for EAAT2, 24 h: 24 h incubation; for SAR comparison of activity on EAAT2 protein levels, in words: relative to parent/comparator analogue, Tables 1-4
Method: All of the derivates of 1 were initially evaluated in PA-EAAT2 cells^3 (a primary astrocyte line stably expressing EAAT2 mRNAs) following compound (10 μM) incubation for 4 and 24 h before harvesting and measuring EAAT2 levels by Western blot analysis. The fold increases in EAAT2 protein levels relative to DMSO controls are reported (Tables 1-4).
Characterization and efficacy studies of a compound, Compound 212320 (FIG. 6A) is shown. […] In the absence of serum, PA-EAAT2 cells express low amounts of EAAT2 protein, although the recombinant EAAT2 mRNA are expressed (translational silencing); however, EAAT2 protein levels are increased when an activator is added to the culture (translational activation). This cell line was used for high-throughput screening to identify EAAT2 translational activators. To prioritize candidate compounds, we initially evaluated activation of EAAT2 protein in PA-EAAT2 cells. Promising compounds were further evaluated in primary dissociated neuron and astrocyte mixed cultures and then in mice. FIG. 6 presents the characterization of Compound 212320 in PA-EAAT2 cells. Compound 212320 increased EAAT2 protein levels in a dose—(FIG. 6B) and time—(FIG. 6C) dependent manner. Importantly, the induction occurred in a short amount of time (within 1-2 hr) and was sustained even up to 72 hr (data not show). Additionally, induction occurred at low nanomolar concentrations. […] (FIG. 6D).

| Structure (SMILES) | Improvement of potency/activity compared to 1 | Fold increase for EAAT2, 4 h | Fold increase for EAAT2, 24 h | SAR comparison of activity on EAAT2 protein levels, in words | EAAT2 protein levels, dose dependence (after 24 h exposure) |
| --- | --- | --- | --- | --- | --- |
| Clc1cccc(Cl)c1CSc1ccc(-c2ccccn2)nn1 [Compound 7-22] | two-fold | 1.5 ± 0.8 fold | 3.9 ± 0.4 fold |  |  |
| Cc1cccc(C)c1COc1ccc(-c2ccccn2)nn1 [Compound 8-3] |  | 2.1 ± 1.2 fold | 3.2 ± 1.4 fold |  |  |
| CCCNC(=O)c1ccc(-c2ccccn2)nn1 [Compound 17-1] |  |  | 1.2 ± 0.2 fold | not tolerated |  |
| Fc1cccc(Cl)c1CCOc1ccc(-c2ccccn2)nn1 [Compound 8-5] |  | 2.2 ± 0.4 fold | 3.1 ± 1.2 fold |  |  |
| Cc1ccccc1CSc1ccc(-c2ccccn2)cn1 [Compound 22] |  | 1.3 ± 0.6 fold |  |  |  |
| Fc1cccc(Cl)c1CSc1ccc(-c2ccncc2)nn1 [Compound 7-2] |  |  | 1.9 ± 0.9 fold | reduced activity |  |
| c1ccc(CSc2ccc(-c3ccccn3)cc2)cc1 [Compound 19] |  | 1.2 ± 0.5 fold | 1.1 ± 0.4 fold |  |  |
| Cc1cccc(C)c1CSc1ccc(-c2ccccn2)nn1 [Compound 7-13] |  |  | 6.5 ± 1.0 fold | increased potency |  |
| Fc1cccc(Cl)c1CCSc1ccc(-c2ccccn2)nn1 [Compound 7-15] |  | 1.9 ± 0.7 fold | 6.7 ± 1.5 fold | more potent |  |
| Cc1ccccc1CSc1ccc(-c2cccnc2)nn1 [Compound 7-5] |  | 1.5 ± 0.4 fold |  | reduced activity |  |
| Fc1ccc(CSc2ccc(-c3ccccn3)nn2)c(Cl)c1 [Compound 7-35] |  | 1.6 ± 0.6 fold | 1.7 ± 0.4 fold |  |  |
| Fc1ccc(Sc2ccc(-c3ccccn3)nn2)c(Cl)c1 [Compound 7-34] |  | 1.3 ± 0.1 fold | 2.5 ± 0.7 fold |  |  |
| Fc1cccc(F)c1CSc1ccc(-c2ccccn2)nn1 [Compound 7-25] |  | 2.1 ± 1.4 fold | 2.2 ± 0.7 fold | did not result in significant improvement |  |
| Cc1ccccc1CSc1ccc(-c2ccccc2)nn1 [Compound 7-6] |  | 1.1 ± 0.1 fold | 2.0 ± 0.4 fold | reduced activity |  |
| Fc1ccc(COc2ccc(-c3ccccn3)nn2)c(F)c1 [Compound 8-6] |  |  | 2.3 ± 0.6 fold |  |  |
| Cc1ccc(Sc2ccc(-c3ccccn3)nn2)c(C)c1 [Compound 7-29] |  | 1.2 ± 0.3 fold | 2.2 ± 0.3 fold | decreased potency |  |
| O=S(=O)(Cc1c(F)cccc1Cl)c1ccc(-c2ccccn2)nn1 [Compound 9-1] |  | 1.4 ± 0.3 fold | 2.8 ± 0.4 fold | detrimental |  |
| Fc1ccccc1CSc1ccc(-c2ccccn2)nn1 [Compound 7-23] |  | 2.2 ± 0.1 fold | 3.1 ± 0.2 fold | improved activity |  |
| Cc1ccc(CSc2ccc(-c3ccccn3)nn2)cc1 [Compound 7-10] |  | 2.1 ± 1.1 fold | 2.6 ± 0.4 fold |  |  |
| c1ccc(CSc2ccc(-c3ccccn3)nn2)cc1 [Compound 7-12] |  | 1.3 ± 0.2 fold | 3.0 ± 0.4 fold and 3.0 ± 0.5 fold | essentially the same potency as 1 |  |
| Clc1cccc(CSc2ccc(-c3ccccn3)nn2)c1 [Compound 7-18] | two-fold | 2.1 ± 0.3 fold | 4.1 ± 0.5 fold |  |  |
| Clc1ccc(Cl)c(CSc2ccc(-c3ccccn3)nn2)c1 [Compound 7-20] |  | 1.4 ± 0.1 fold | 2.5 ± 0.4 fold | equivalent to 1 |  |
| CCSc1ccc(-c2ccccn2)nn1 [Compound 7-36] |  | 1.6 ± 0.7 fold | 1.9 ± 0.9 fold | essentially the same potency as 1 |  |
| CC(Oc1ccc(-c2ccccn2)nn1)c1c(F)cccc1Cl (racemic) [Compound 8-4] |  | 1.6 ± 0.2 fold | 3.0 ± 0.7 fold |  |  |

| Structure (SMILES) | Improvement of potency/activity compared to 1 | Fold increase for EAAT2, 4 h | Fold increase for EAAT2, 24 h | SAR comparison of activity on EAAT2 protein levels, in words | EAAT2 protein levels, dose dependence (after 24 h exposure) |
| --- | --- | --- | --- | --- | --- |
| Cc1ccccc1CNc1ccc(-c2ccccn2)nn1 [Compound 14] |  | 1.7 ± 1.1 fold | 2.6 ± 0.5 fold | weaker activity |  |
| O=S(=O)(Cc1ccccc1Cl)c1ccc(-c2ccccn2)nn1 [Compound 9-3] |  | 1.6 ± 0.3 fold |  | detrimental |  |
| Fc1ccc(CSc2ccc(-c3ccccn3)nn2)c(F)c1 [Compound 7-16] |  | 2.4 ± 1.5 fold | 3.8 ± 0.8 fold | improved activity |  |
| Clc1ccccc1CSc1ccc(-c2cccnc2)nn1 [Compound 7-8] |  | 1.2 ± 0.4 fold | 1.2 ± 0.3 fold | reduced activity |  |
| CC(Sc1ccc(-c2ccccn2)nn1)c1c(F)cccc1Cl (racemic) [Compound 7-14] | about 3 fold | 1.7 ± 0.9 fold | 5.5 ± 1.0 fold |  |  |
| Clc1cccc(CSc2ccc(-c3ccccn3)nn2)c1Cl [Compound 7-19] |  |  | 2.4 ± 0.4 fold | equivalent to 1 |  |
| Cc1ccccc1COc1ccc(-c2ccccn2)nc1 [Compound 15] |  | 1.5 ± 0.3 fold |  |  |  |
| Cc1ccccc1COc1ccc(-c2ccccn2)nn1 [Compound 8-1] |  | 2.0 ± 0.9 fold | 2.5 ± 0.5 fold |  |  |
| Cc1ccccc1CCSc1ccc(-c2ccccn2)nn1 [Compound 7-32] |  | 1.2 ± 0.3 fold | 2.8 ± 0.4 fold | exception |  |
| Clc1ccc(CSc2ccc(-c3ccccn3)nn2)c(Cl)c1 [Compound 7-21] |  | 1.8 ± 0.5 fold |  | equivalent to 1 |  |
| Fc1cccc(Cl)c1COc1ccc(-c2ccccn2)nn1 [Compound 8-2] |  | 1.1 ± 0.3 fold | 2.9 ± 0.4 fold |  |  |
| Clc1ccccc1CSc1ccc(-c2ccccn2)nn1 [Compound 7-7] | two-fold | 2.1 ± 1.4 fold | 4.0 ± 0.3 fold |  |  |
| Clc1ccccc1CCSc1ccc(-c2ccccn2)nn1 [Compound 7-31] |  | 1.7 ± 0.2 fold | 4.8 ± 0.6 fold | more potent |  |
| Sc1ccc(-c2ccccn2)nn1 [Compound 6-1] |  |  | 2.0 ± 0.8 fold | essentially the same potency as 1 |  |
| Cc1ccc(CSc2ccc(-c3ccccn3)nn2)cc1 [Compound 7-28] |  |  |  | less potent |  |
| Cc1ccccc1CNC(=O)c1ccc(-c2ccccn2)nn1 [Compound 17-2] |  |  | 1.4 ± 0.2 fold | not tolerated |  |
| c1ccc(-c2ccc(SC3CCCc4ccccc43)nn2)nc1 (racemic) [Compound 7-33] | about 3 fold |  | 5.3 ± 1.1 fold |  |  |
| Cc1ccc(-c2ccc(SCc3c(F)cccc3Cl)nn2)cc1 [Compound 7-3] |  | 1.2 ± 0.2 fold | 2.3 ± 0.7 fold |  |  |
| Cc1ccc(COc2ccc(-c3ccccn3)nn2)c(C)c1 [Compound 8-7] |  |  | 2.0 ± 0.9 fold |  |  |
| Fc1cccc(Cl)c1CSc1ccc(-c2ccccn2)nn1 [Compound 1] |  |  | 2.0 ± 0.8 fold |  | dose-dependent increase |
| Clc1ccccc1CSc1ccc(-c2ccncc2)nn1 [Compound 7-9] |  | 1.5 ± 0.2 fold | 1.7 ± 0.3 fold | reduced activity |  |
| Cc1cc(C)c(CSc2ccc(-c3ccccn3)nn2)c(C)c1 [Compound 7-30] |  | 1.7 ± 0.3 fold | 4.7 ± 0.5 fold | increased potency |  |
| Fc1ccc(CSc2ccc(-c3ccccn3)nn2)cc1 [Compound 7-24] |  | 2.5 ± 0.6 fold | 2.6 ± 0.3 fold | did not result in significant improvement |  |
